{"source": "patent US20160120848A1", "about": "“SPECIFIC CANCER TREATMENT REGIMES WITH GANETESPIB” (SYNTA PHARMACEUTICALS CORP., priority 2013, published 2016)", "key": {"[1]": {"system": "inflammatory breast cancer", "test": "Phase 1b study of ganetespib with doxorubicin, cyclophosphamide and docetaxel", "assay_type": "in vivo, patients", "settings": "combination with doxorubicin", "from_the_text": "This is an open-label, multicenter, Phase 1b, dose-escalation study in patients with locally advanced and inflammatory breast cancer. The purpose of the study is to test the safety and tolerability of ganetespib in patients with operable breast cancer.\nEligible patients must be treatment naïve with histologic confirmation of breast adenocarcinoma, and a tumor that is readily accessible for sequential biopsy. Before the study, patients undergo a complete physical examination, laboratory investigations, chest x-ray, a mammogram and a breast ultrasonography and other imaging studies (e.g., MRI, PET-CT, or mammogram) to determine the local extent of the disease. Abdominal CT scan is performed to exclude metastatic disease. The methods used to document baseline status must be consistently used throughout the study. Prior to entering the study, HER2 status of the tumor is determined by the local lab.\nA pharmacodynamics phase consists of ganetespib single agent given at a dose of 150 mg/m^2 twice for 1 week prior to start of dose escalation phase (approximately on Days −7 and −4). A pre-dose tumor biopsy is obtained within 15+/−3 days prior to initiating treatment with ganetespib. A post-treatment […] is obtained on Day −4, to evaluate the effects of ganetespib on downstream effectors regulating tumor proliferation and survival, as well as potential effects on HIF1-transcriptional activity. […]"}, "[2]": {"system": "advanced solid tumor malignancies", "test": "Phase I study of ganetespib monotherapy in advanced solid tumor malignancies", "assay_type": "in vivo, patients", "settings": "ganetespib monotherapy 75 or 150 mg/m^2, Days 1 and 15 of 3-week cycle", "experimental": "A total of 3 (three) cohorts are treated in this study. All patients are hospitalized for the duration of Cycle 1, Days 1 through 21.\nIn the first cohort (Cohort 1), patients with advanced solid tumor malignancies are treated with 75 mg/m^2 of ganetespib monotherapy. In the second cohort (Cohort 2), patients with advanced solid tumor malignancies are treated with 150 mg/m^2 of ganetespib monotherapy. In the third cohort (Cohort 3), patients with advanced NSCLC are treated with ganetespib (150 mg/m^2) in combination with docetaxel (75 mg/m^2). In the case of intolerability of the third cohort's combination regimen, in a fourth cohort (Cohort 4), patients with advanced NSCLC are treated with ganetespib (150 mg/m^2) in combination with docetaxel (60 mg/m^2).\nEach cohort enrolls 3 to 6 patients, depending on toxicity and the inclusion of Cohort 4. A total of 9 patients are enrolled at the recommended combination dose level to better characterize the safety and PK profiles. Each cohort consists of a maximum of 6 evaluable patients, except for the recommended combination dose level, which enrolls a total of 9 patients. Patients who discontinue from the study for reasons other than DLT (dose-limiting toxicity) before completing Cycle 1 are replaced. For all cohorts, patients are hospitalized for the duration of Cycle 1, Days 1 through 21. […]"}}}
{"smiles": "CC(C)c1cc(-c2n[nH]c(=O)n2-c2ccc3c(ccn3C)c2)c(O)cc1O", "note": "[ganetespib]", "values": [{"measurement": "efficacy", "setting": "[1]", "value": "efficacious"}, {"measurement": "safety profile", "setting": "[1]", "value": "good safety profile"}, {"measurement": "efficacy", "setting": "[2]", "value": "efficacious"}, {"measurement": "safety profile", "setting": "[2]", "value": "good safety profile"}]}
